Test results from US8217071B2, “Use of inhibitors of the degradation of p27, in particular Argyrin and derivatives thereof, for the treatment of proliferative diseases” (Helmholtz Zentrum für Infektionsforschung GmbH, priority 2007, dated 2012).
Converted amounts (≈) assume the structure as drawn. Numbered stars: 1 amine (or outer) side, 2 acyl side, 3 side chain; on linkers, the order of the positions; unused ones are H or OH. Square brackets hold non-standard residues; d marks the D form. Peptide text beside a SMILES is read from it. dAla(ψthiazole) = C[C@@H](N[*:1])c1nc(C(=O)[*:2])cs1; Trp(4-OMe) = COc1cccc2[nH]cc(C[C@H](N)C(=O)O)c12; Dha = C=C(N)C(=O)O; Sar = CNCC(=O)O

Tests used:
p27^kip1 = p27^kip1 half life in cycloheximide treated cells; assay type: cell-based, human; conditions: HeLa and SW480 cells, cycloheximide 25 μg/mL
Experimental: The inventors therefore conclude that Argyrin A prevents the degradation of p27 due to its proteasome inhibitory activity in vivo and induces apoptosis or G1 arrest in a variety of different tumour cell lines.
(§1) The expression levels of p27^kip1 were determined at the indicated timepoints by western blotting and normalized against actin expression which was used as an internal control.

HUVEC = test: In vitro capillary-like tube structure formation on matrigel; assay type: cell-based, human
Excerpt: The inventors then asked whether Argyrin A was also able to prevent the formation of capillary like tube structures formed by HUVEC on matrigel, an assay frequently used to test the ability of a compound to interfere with neovascularization. […] The addition of Argyrin A led to a 40% reduction in tube formation in this assay. Importantly transfection of siRNA against p27 protected endothelial cells against the inhibitory activity of Argyrin A. The effects exerted by Bortezomib in this assay were smaller and not rescued by loss of p27. In addition to tube length the inventors also quantitated the number of blood vessel like structures formed by HUVECS after treatment with Argyrin A or bortezomib (FIG. 4F).
(§2) Treatment with Argyrin A or bortezomib was started when these tumours reached a volume of 200 mm3. […] (n=8 Argyrin A, n=8 Bortezomib, n=6 PBS/EtOH) b) The pictures show the macroscopic appearance of a xenotransplant tumour after 10 days of treatment with Argyrin A. Note the large necrotic centre of the explanted tumour. c) After a single injection of Argyrin A (0.15 mg/kg bodyweight) or bortezomib (1.0 mg/kg bodyweight) tumours were explanted at the indicated time points and blood vessels in the tumour tissue were co-stained for CD31 and p27. […] Note the swelling of the endothelial cell (“E”) and the occlusion of the lumen (“L”) by erythrocytes after 90 minutes of Argyrin A treatment. The arrow marks the detachment of endothelial cells after 48 h of Argyrin A treatment. […] Tube length (f) and blood vessel like […] structures were determined using photographs of HUVEC cultures. The micrographs show representative examples of HUVEC cultures under the indicated conditions.
Primary microvascular endothelial cells (HMVEC) were isolated from human foreskin. The cells were kept at 37° C. and 10% CO2 in EGM-2 MV from Cambrex which includes the basal medium (EBM-2), FBS, hydrocortisone, hFGF-B, VEGF, R3-IGF, ascorbic acid, hEGF, gentamicin and amphotericin. The effect of argyrin A or bortezomib on in vitro angiogenesis was determined by matrigel capillary-like tube structure formation assay. To examine the effect of the different compounds on in vitro angiogenesis, HMVECs were seeded in 96-well culture plates precoated with Matrigel (BD Biosciences, #354248) and exposed to argyrin A or bortezomib. Enclosed networks of tube structures from three randomly chosen fields were scored under the microscope (Leica, Cambridge, United Kingdom). Pictures were taken with an Axio Vision 3.1 Zeiss camera and scored by determining tube length and the formation of closed vessel like structures.

[1] = test system: HCT116 colon carcinoma xenotransplant tumours; test: HCT116 xenotransplant tumours in nu/nu mice; assay type: in vivo, mouse; conditions: HCT116 derived tumor-xenografts
Experimental: as §2
1×10^7 SW480 cells or HCT116 cells (in 100 microliters DMEM medium and 100 microliters matrigel) were s.c. injected into the flanks of NMRI nu/nu mice. Tumours grew for approx. 18 days until they reached appropriate size (200 mm3). Tumour size was measured with a digital calliper and calculated with the help of the following formula: (Length×width2)*π/6. […]

[2] = test system: SW480 colon carcinoma cell line; test: Flow cytometry cell cycle / sub-G1 analysis; assay type: cell-based, human; conditions: at ranges of IC50; sub G1 phase fraction
Experimental: as §1
(§3) MTT assays were done as previously described (Sasse, F. et al. Argyrins, immunosuppressive cyclic peptides from myxobacteria. I. Production, isolation, physico-chemical and biological properties. J Antibiot (Tokyo) 55, 543-51 (2002)). TUNEL staining of tissue sections was performed on 10 micrometer sections which were deparafinised and treated as recommended by the manufacturer. (In Situ Cell Death Detection Kit, Fluorescein; ROCHE, Cat #11 684 795 910). Flow cytometric analysis of cultured cells was done using a Becton Dickinson fluorescence cytometer as previously described (Malek, N. P. et al. A mouse knock-in model exposes sequential proteolytic pathways that regulate p27^Kip1 in G1 and S phase. Nature 413, 323-7 (2001)). Analysis of the distribution of cells in the cell cycle and the sub-G1 fraction was done using Cell Quest software. A histone-associated-DNA-fragments ELISA was used to determine the number of apoptotic cells according to manufacturers instructions (Roche #11 774425001).

HeLa (cervix carcinoma) = test: Flow cytometry cell cycle / sub-G1 analysis; assay type: cell-based, human; conditions: at ranges of IC50; sub G1 phase fraction
Experimental: as §1, §3

[3] = test system: HCT116 colon carcinoma cells; test: Flow cytometry cell cycle / sub-G1 analysis; assay type: cell-based, human; conditions: at ranges of IC50
Experimental: as §1, §3

[4] = test system: CaCo colon carcinoma cell line; test: Flow cytometry cell cycle / sub-G1 analysis; assay type: cell-based, human; conditions: at ranges of IC50; sub G1 phase fraction
Experimental: as §1, §3

MCF7 (breast cancer) = test: Flow cytometry cell cycle / sub-G1 analysis; assay type: cell-based, human; conditions: at ranges of IC50; sub G1 phase fraction
Experimental: as §1, §3

A549 (lung cancer) = test: Flow cytometry cell cycle / sub-G1 analysis; assay type: cell-based, human; conditions: at ranges of IC50
Experimental: as §1, §3

[5] = test system: SW-480 (colon cancer cell line); test: MTT-test proliferation of SW-480; assay type: cell-based, human; conditions: half-maximal inhibition of proliferation
Experimental: as §3

[6] = test system: p27-GFP (clone H15GFP-p27, HeLa-cell line; cervix-carcinoma); test: GFP-fluorescence per FACS in clone H15GFP-p27; assay type: cell-based, human; conditions: GFP-fluorescence per FACS after 24 h incubation, 500 ng/ml
Excerpt: Human p27cDNA (in plasmid vector CS2+) was digested with EcoR1 and BamH1, and the resulting fragment was ligated after gel purification into the vector pEGFP-N1 (Clontech) that was cut with the same restriction enzymes. Thus, a […] fusion with the GFP as contained in the pEGFP-vector was generated. The plasmid was then transfected into Hela cells, and, following selection of the cells with kanamycin, cellular clones were isolated which had the plasmid integrated stably into their chromosome. The expression of the p27EGFP proteins was confirmed using Western blots and immune precipitations for both p27 and GFP.
(§4) The following table summarizes the effects of argyrin-derivatives A to H on two cancer cell lines, H15 (cervix carcinoma) and SW-480 (colon cancer). In order to test the efficacy, a p27-GFP-clone was used.

H15 (cervix carcinoma) = test: MIC (visual), serial dilution, H15; assay type: cell-based, human; conditions: minimal concentration of a serial dilution exhibiting a visual effect
Excerpt: as §4

[7] = Argyrin A 1 μM, bortezomib 10 nM

| SMILES | p27 turnover (p27^kip1) | number of blood vessel like structures (HUVEC; [7]) | reduction in tube formation (relative length of capillary tubes) (HUVEC; VEGF stimulation, Argyrin A 1 μM) | tumour volume [1] | cellular phenotype [2] | cellular phenotype (HeLa (cervix carcinoma)) | cellular phenotype [3] | cellular phenotype [4] | cellular phenotype (MCF7 (breast cancer)) | cellular phenotype (A549 (lung cancer)) | IC-50 SW-480 [5] | Mean of FSC-H (Log) H15 p27-GFP-clone [6] | MIC (visual) H15 (H15 (cervix carcinoma)) | effect on tube formation compared with Argyrin A (HUVEC; bortezomib 10 nM) |
| --- | --- | --- | --- | --- | --- | --- | --- | --- | --- | --- | --- | --- | --- | --- |
| C=C1NC(=O)[C@@H](C)NC(=O)CNC(=O)[C@H](Cc2c[nH]c3cccc(OC)c23)NC(=O)[C@H](Cc2c[nH]c3ccccc23)NC(=O)c2csc(n2)[C@@H](C)NC(=O)CN(C)C1=O [Argyrin A] (cyclo(W[Trp(4-OMe)]G[dA][Dha][Sar][dAla(ψthiazole)])) | complete block | significant reduction | 40% | significant reduction | underwent apoptosis | underwent apoptosis | stopped to proliferate | underwent apoptosis | underwent apoptosis | stopped to proliferate | Ca. 0.05 μg/ml | 8.52 | 4 µg/mL (≈ 4.85 µM) | – |
| CC(C)C[C@H](NC(=O)[C@H](Cc1ccccc1)NC(=O)c1cnccn1)B(O)O [bortezomib, reference compound] | – | significant reduction | – | – | – | – | – | – | – | – | – | – | – | smaller |
